Here are results for 24 molecules from patent US8557796B2, “Substituted 1-oxa-2,8-diaza-spiro [4,5] dec-2-ene derivatives and related treatment methods” (Gruenenthal GmbH, priority 2001, dated 2013).

Structures are written as SMILES.

The first assay deals with batrachotoxin (BTX) binding site (binding site 2) of the sodium channel. Put plainly: Bond test on the sodium channel, binding site 2 (BTX bond), [3H]-batrachotoxinin A20 α-benzoate displacement. Conditions: rat cerebrocortex synaptosomes.
Turning to `O=C(NCC(c1ccccc1)c1ccccc1)C1=NOC2(CCN(S(=O)(=O)c3ccc(Cl)s3)CC2)C1` [Example 79, 8-(5-chloro-thiophene-2-sulphonyl)-1-oxa-2,8-diaza-spiro[4,5]dec-2-ene-3-carboxylic acid (2,2-diphenyl-ethyl)-amide], the “BTX bond, 10 μM, % inhibition” value came out at 83%.

As for `Cc1ccc(S(=O)(=O)N2CCC3(CC2)CC(C(=O)NCCN(C)C)=NO3)cc1` [Example 57, 8-(toluene-4-sulphonyl)-1-oxa-2,8-diaza-spiro[4,5]dec-2-ene-3-carboxylic acid (2-dimethylamino-ethyl)-amide], the “BTX bond, 10 μM, % inhibition” value turned out to be 45%. As for `CC(NC(=O)C1=NOC2(CCN(S(=O)(=O)c3cccs3)CC2)C1)c1ccccc1` (stereo not drawn) [Example 8, 8-(thiophene-2-sulphonyl)-1-oxa-2,8-diaza-spiro[4,5]dec-2-ene-3-carboxylic acid (1-phenyl-ethyl)-amide], the “BTX bond, 10 μM, % inhibition” value is reported as 63%. On the same count and under the same terms, under `O=C(NCCc1cccc(C(F)(F)F)c1)C1=NOC2(CCN(S(=O)(=O)c3ccc(F)cc3)CC2)C1` [Example 196] stands 51%. For `CN(C)S(=O)(=O)N1CCC2(CC1)CC(C(=O)N1CCN(Cc3ccc(C(C)(C)C)cc3)CC1)=NO2` [Example 189, 3-[4-(4-tert-butyl-benzyl)-piperazine-1-carbonyl]-1-oxa-2,8-diaza-spiro[4,5]dec-2-ene-8-sulphonic acid dimethylamide], the “BTX bond, 10 μM, % inhibition” value is 69%.

Regarding `CC(Oc1ccccc1)C(=O)N1CCC2(CC1)CC(C(=O)NCc1ccccc1)=NO2` (stereo not drawn) [Example 149, 8-(2-phenoxy-propionyl)-1-oxa-2,8-diaza-spiro[4,5]dec-2-ene-3-carboxylic acid benzylamide], the “BTX bond, 10 μM, % inhibition” value is given as 40%. The same measure, in the same setting: under `Cc1ccc(C(C)NC(=O)C2=NOC3(CCN(S(=O)(=O)c4ccc(C)cc4)CC3)C2)cc1` (stereo not drawn) [Example 45, 8-(toluene-4-sulphonyl)-1-oxa-2,8-diaza-spiro[4,5]dec-2-ene-3-carboxylic acid (1-p-tolyl-ethyl)-amide] stands 49%; under `O=C(C1=NOC2(CCN(S(=O)(=O)c3ccc(F)cc3)CC2)C1)N1CCN(CCCc2ccccc2)CC1` [Example 186, [8-(4-fluoro-benzenesulphonyl)-1-oxa-2,8-diaza-spiro[4,5]dec-2-en-3-yl]-[4-(3-phenyl-propyl)-piperazin-1-yl]-methanone], 56%. Same read-out and setting: under `CN(C)S(=O)(=O)N1CCC2(CC1)CC(C(=O)N1CCN(Cc3ccc4ccccc4c3)CC1)=NO2` [Example 65, 3-(4-naphthalen-2-ylmethyl-piperazine-1-carbonyl)-1-oxa-2,8-diaza-spiro[4,5]dec-2-ene-8-sulphonic acid dimethylamide] stands 67%; under `O=C(NC(c1ccccc1)c1ccccc1)C1=NOC2(CCN(S(=O)(=O)c3ccc(Cl)s3)CC2)C1` [Example 40, 8-(5-chloro-thiophene-2-sulphonyl)-1-oxa-2,8-diaza-spiro[4,5]dec-2-ene-3 carboxylic acid benzhydryl-amide], 47%; under `COCCOCC(=O)N1CCC2(CC1)CC(C(=O)NCc1ccccc1)=NO2` [Example 87, 8-[2-(2-methoxy-ethoxy)-acetyl]-1-oxa-2,8-diaza-spiro[4,5]dec-2-ene-3-carboxylic acid benzylamide], 42%. Same read-out and setting: under `COc1ccc(OC)c(CN(Cc2ccco2)C(=O)C2=NOC3(CCN(S(=O)(=O)c4ccc(F)cc4)CC3)C2)c1` [Example 160] stands 75%; under `CC(Cc1ccc(Cl)cc1)NC(=O)C1=NOC2(CCN(S(=O)(=O)c3ccc(Cl)s3)CC2)C1` (stereo not drawn) [Example 168, 8-(5-chloro-thiophene-2-sulphonyl)-1-oxa-2,8-diaza-spiro[4,5]dec-2-ene-3-carboxylic acid [2-(4-chloro-phenyl)-1-methyl-ethyl]-amide], 69%; under `CC(=O)N1CCC2(CC1)CC(C(=O)NCc1ccccc1)=NO2` [Example 48, 8-acetyl-1-oxa-2,8-diaza-spiro[4,5]dec-2-ene-3-carboxylic acid benzylamide], 43%.

`O=C(NC1CCCC1OCc1ccccc1)C1=NOC2(CCN(S(=O)(=O)Cc3ccccc3)CC2)C1` (stereo not drawn) [Example 20, 8-phenylmethanesulphonyl-1-oxa-2,8-diaza-spiro[4,5]dec-2-ene-3-carboxylic acid (2-benzyloxy-cyclopentyl)-amide]: the “BTX bond, 10 μM, % inhibition” value was found to be 69%.

On to `O=C(NC1CCCC1OCc1ccccc1)C1=NOC2(CCN(S(=O)(=O)c3ccc(Cl)s3)CC2)C1` (stereo not drawn) [Example 191], for which the “BTX bond, 10 μM, % inhibition” value worked out at 75%.

As to `O=C(C1=NOC2(CCN(S(=O)(=O)c3ccc(Cl)s3)CC2)C1)N1CCN(c2ccc(F)cc2)CC1` [Example 91, [8-(5-chloro-thiophene-2-sulphonyl)-1-oxa-2,8-diaza-spiro[4,5]dec-2-en-3-yl]-[4-(4-fluorophenyl)-piperazin-1-yl]-methanone], the “BTX bond, 10 μM, % inhibition” value amounted to 72%.

With `O=C(NCc1ccccc1F)C1=NOC2(CCN(S(=O)(=O)c3ccc(F)cc3)CC2)C1` [Example 207, 8-(4-fluoro-benzenesulphonyl)-1-oxa-2,8-diaza-spiro[4,5]dec-2-ene-3-carboxylic acid 2 fluorobenzylamide], the “BTX bond, 10 μM, % inhibition” value was found to be 56%.

Turning to `Cc1cccc(N2CCN(C(=O)C3=NOC4(CCN(S(=O)(=O)c5cccs5)CC4)C3)CC2C)c1` (stereo not drawn) [Example 31, (3-methyl-4-m-tolyl-piperazin-l-yl)-[8-(thiophene-2-sulphonyl)-1-oxa-2,8-diaza-spiro[4,5]dec-2-en-3-yl]-methanone], the “BTX bond, 10 μM, % inhibition” value came out at 80%. The same measure, in the same setting: under `CCN(CCNC(=O)C1=NOC2(CCN(S(=O)(=O)N(C)C)CC2)C1)c1cccc(C)c1` [Example 216, 8-dimethylsulphamoyl-1-oxa-2,8-diaza-spiro[4,5]dec-2-ene-3-carboxylic acid [2-(ethyl-m-tolyl-amino)-ethyl]amide] stands 64%. The same measure, in the same setting: under `O=C(NCc1cccs1)C1=NOC2(CCN(C(=O)COc3cccc(Cl)c3)CC2)C1` [Example 96, 8-[2-(3-chloro-phenoxy)-acetyl]-1-oxa-2,8-diaza-spiro[4,5]dec-2-ene-3-carboxylic acid (thiophen-2-ylmethyl)-amide] stands 72%. The same measure, in the same setting: under `O=C(C1=NOC2(CCN(S(=O)(=O)c3cccc(C(F)(F)F)c3)CC2)C1)N1CCN(Cc2ccc3ccccc3c2)CC1` [Example 35, (4-naphthalen-2-ylmethyl-piperazin-l-yl)-[8-(3-trifluoromethyl-benzenesulphonyl)-1-oxa-2,8-diaza-spiro[4,5]dec-2-en-3-yl]-methanone] stands 50%; under `Cc1ccc(S(=O)(=O)N2CCC3(CC2)CC(C(=O)N(CCC#N)Cc2ccccc2)=NO3)cc1` [Example 28, 8-(toluene-4-sulphonyl)-1-oxa-2,8-diaza-spiro[4,5]dec-2-ene-3-carboxylic acid benzyl-(2-cyano-ethyl)-amide], 52%.

Still in this assay, the particulars now being: rat cerebrocortex synaptosomes, 10 µM.
Regarding `COc1ccc(S(=O)(=O)N2CCC3(CC2)CC(C(=O)NC2CCCC2OCc2ccccc2)=NO3)cc1` (stereo not drawn) [Example 169, 8-(4-methoxy-benzenesulphonyl)-1-oxa-2,8-diaza-spiro[4,5]dec-2-ene-3-carboxylic acid (2-benzyloxy-cyclopentyl)-amide], the “BTX bond, 10 μM, % inhibition” value is 48%.
